Measurements published in patent US20200368235A1, “IBRUTINIB COMBINATION THERAPY” (Pharmacyclics LLC, priority 2013, published 2020).

B1: siltuximab (antibody, chains of the INN, looked up, V domains shown)
VH: EVQLVESGGKLLKPGGSLKLSCAASGFTFSSFAMSWFRQSPEKRLEWVAEISSGGSYTYYPDTVTGRFTISRDNAKNTLYLEMSSLRSEDTAMYYCARGLWGYYALDYWGQGTSVTVSS
VL: QIVLIQSPAIMSASPGEKVTMTCSASSSVSYMYWYQQKPGSSPRLLIYDTSNLASGVPVRFSGSGSGTSYSLTISRMEAEDAATYYCQQWSGYPYTFGGGTKLEIK

How the values were obtained:
Format in all cases: cell-based
[1] = system: 17 Diffuse Large B Cell Lymphoma (DLBCL) cell lines; assay: High throughput screen of ibrutinib combinations, growth inhibition by ATP-lite at 72h; conditions: for synergy in combination with JNJ-02 (ibrutinib): synergy score heat map across DLBCL cell lines
Experimental: (§1) A high throughput screen of 17 Diffuse Large B Cell Lymphoma (DLBCL) cell lines was conducted for their response to Ibrutinib in combination with 99 anti-cancer agents selected from among standard-of-care and emerging therapeutics and targeted agents. The goal of the project was to identify and quantify specific synergies with Ibrutinib to identify pathways that contribute to clinical response. Examples of therapeutics tested included first-line DLBCL therapeutics: RCHOP (Rituximab, Cyclophosphamide, Doxorubicin, Vincristine, Prednisone) or EPOCH (+Etoposide) and Second-line therapeutics: Dexamethasone, Prednisone, Etoposide, Vincristine, Gemcitabine, Carboplatin, Ifosfamide, Bendamustine, Cyclophosphamide, Rituximab, Lenalidomide, and Anthracycline.
(§2) The 17 DLBCL cell lines tested were DB, DOHH-2, HBL-1, HT, NU-DHL-1, OCI-Lyl, OCI-Ly10, OCI-Ly18, OCI-Ly19, OCI-Ly3, OCI-Ly7, Pfeiffer, SU-DHL-5, SU-DHL-6, SU-DHL-8, TMD8 and Toledo. Eight of the cell lines were screened in human MSC-conditioned medium (hMSC-CM) and nine of the cell lines were screened with hMSC-CM+1 ug/ml each of anti-IgM and anti-IgG. The assay was performed in a 384-well format (6×6 HFDR format) with intra-plate replicates (Ibrutinib n=4; enhancers n=2; combination n=1), inter-plate replicates (n=3) and 20 self-crosses. The dose-response matrix screening was designed to detect both types of multi-target interaction, potency shifts or efficacy boosts.
(§3) The cells were seeded 24h before dosing. Cells were dosed with ibrutinib (JNJ-02) and the test compounds at varying concentrations as depicted in FIGS. 18-39G. At T0 (0h after dosing) and T72 (72h after dosing) ATP-lite raw values were obtained. Growth inhibition of the cell culture was measured as follows:
(§4) Measure untreated at time 0 (V0) (the time at which drugs are added), treated (T) and untreated (V) (at assay end point (72h).
(§5) 100% (Total growth inhibition)—treatment viability signal and 0h vehicle viability signal are matched. (T=V0)
(§6) 200% (complete kill)—treatment viability signal is 0. (T=0)
(§7) The growth inhibition measure is sensitive to the cell doubling time (e.g., it measures the fraction of (net) growth inhibition during the assay period). Growth inhibition gives additional valuable information. For example, 0%-100% (growth inhibition) represents % reduction in net increase in the cells with vehicle during drug incubation period, 100% represents no net increase in viability signal at T72 and T0) (i.e., cytostatic) and 100%-200% (killing zone) represents cytotoxic effects.

DOHH-2 cell line = assay: High throughput combination screen, growth inhibition (ATP-lite)
Experimental: as §1, §2, §3, §4, §5, §6, §7

OCI-Ly18 cell line = assay: as above
Experimental: as §1, §2, §3, §4, §5, §6, §7

TMD8 cell line = assay: as above
Experimental: as §1, §2, §3, §4, §5, §6, §7

| Molecule | synergy in combination with JNJ-02 (ibrutinib) [1] | further results |
| --- | --- | --- |
| CCOC(=O)C1=C(N)Oc2ccc(Br)cc2C1C(C#N)C(=O)OCC (stereo not drawn) [HA14-1] | modest synergy in selected cell lines | – |
| Nc1cccc2c1CN(C1CCC(=O)NC1=O)C2=O (stereo not drawn) [Lenalidomide] | synergized | activity as a single agent ([1]; single agent, cell line not given): not active as a single agent; synergy with JNJ-02 (ibrutinib) (DOHH-2 cell line; combination with ibrutinib): does not show synergy; activity as a single agent (DOHH-2 cell line; single agent): active as a single agent; synergy with JNJ-02 (ibrutinib) (OCI-Ly18 cell line; combination with ibrutinib): does not show synergy; activity as a single agent (OCI-Ly18 cell line; single agent): active as a single agent; synergy with JNJ-02 (ibrutinib) (TMD8 cell line; combination with ibrutinib): synergizes; activity as a single agent (TMD8 cell line; single agent): not active as a single agent |
| CN(C)CC[C@H](CSc1ccccc1)Nc1ccc(S(=O)(=O)NC(=O)c2ccc(N3CCN(Cc4ccccc4-c4ccc(Cl)cc4)CC3)cc2)cc1[N+](=O)[O-] [ABT-737] | strong synergy and good breadth of activity | – |
| O=C(c1ccc(Nc2nccc(-c3cc4ccccc4s3)n2)cc1)N1CCC(N2CCCC2)CC1 [IKK inhibitor VII] | strong synergy and good breadth of activity | – |
| rituximab | Synergy is observed | – |
| CC(C)c1c(C(=O)Nc2ccccc2)c(-c2ccccc2)c(-c2ccc(F)cc2)n1CC[C@@H](O)C[C@@H](O)CC(=O)O [Atrovastatin] | synergizes | – |
| C[C@]12C=CC(=O)C=C1CC[C@@H]1[C@@H]2[C@@H](O)C[C@@]2(C)[C@H]1CC[C@]2(O)C(=O)CO [prednisolone] | strong synergy and good breadth of activity | – |
| B1 | not | – |
